This is an account of results in patent publication US8772248B2, “Drug delivery system” (Keele University, priority 2004, dated 2014).

The target in data set [1] is T1, PepT1 (Oryctolagus cuniculus, UniProt P36836).
T1 construct: expressed in transfected cells
T1 sequence (P36836 1-707): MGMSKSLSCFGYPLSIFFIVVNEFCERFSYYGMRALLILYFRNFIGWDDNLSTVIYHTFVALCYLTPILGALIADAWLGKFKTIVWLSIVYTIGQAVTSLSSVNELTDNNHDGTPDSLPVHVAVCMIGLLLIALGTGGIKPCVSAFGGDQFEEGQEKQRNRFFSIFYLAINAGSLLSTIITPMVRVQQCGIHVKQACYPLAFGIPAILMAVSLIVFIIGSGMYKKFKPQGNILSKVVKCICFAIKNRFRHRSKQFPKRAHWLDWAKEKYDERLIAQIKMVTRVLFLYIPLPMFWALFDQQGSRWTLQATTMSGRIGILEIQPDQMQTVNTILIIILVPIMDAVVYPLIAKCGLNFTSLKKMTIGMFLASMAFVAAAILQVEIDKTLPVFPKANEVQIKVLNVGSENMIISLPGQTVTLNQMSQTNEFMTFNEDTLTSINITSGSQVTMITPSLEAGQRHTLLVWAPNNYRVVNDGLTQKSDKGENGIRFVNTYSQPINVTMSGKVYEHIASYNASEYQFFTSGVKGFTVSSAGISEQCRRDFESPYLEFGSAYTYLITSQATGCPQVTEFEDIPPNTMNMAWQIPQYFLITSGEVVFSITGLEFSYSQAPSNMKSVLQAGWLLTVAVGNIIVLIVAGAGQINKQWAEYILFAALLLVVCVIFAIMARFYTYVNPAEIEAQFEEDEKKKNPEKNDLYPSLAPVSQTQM
The data set can be described thus: Uptake of [3H]-D-Phe-L-Gln in oocytes in competition with test compound (binding to PepT1). The procedure:
Uptake of the radiolabelled dipeptide [^3H]-D-Phe-L-Gln (17.4 Ci/mmole, custom synthesised, Cambridge Research Biochemicals, Stockton-on-Tees, UK) in competition with the compounds to be tested, was performed as previously described (Meredith et al. J. Physiol., 1998, 512, 629-634). Briefly, 5 oocytes were incubated at room temperature in 100 μL of uptake medium (95 mM NaCl, 2 mM KCl, 1 mM CaCl2, 0.42 mM MgCl2, 10 mM Tris/Mes pH 5.5) with tracer (0.4 μM) [^3H]-D-Phe-L-Gln with or without a test compound at the appropriate concentration. After incubation for one hour, the oocytes were washed sequentially five times in 1 mL of ice-cold uptake medium, then lysed individually with 100 μL 2% (w/v) SDS in vials, and liquid scintillation counted.
Quantitative binding data has been produced for a large number of thiodipeptide carriers with attached drug surrogates using the methodology described in Meredith et al., 1998, discussed supra, and is shown in Table 2 below, and in FIG. 7. Each of the thiopeptide carrier molecules shown is in accordance with the present invention, with each compound comprising a serine amino acid side chain group on the second amino acid residue.

Data set [2] in a line: Resistance to hydrolysis. The class given is in vitro ADME.
Data set [3] relates to rats. As to the kind of experiment: Single dose toxicity study in rat. The class given is in vivo. The settings on record: single oral dose 700 mg/kg. How it is done: Toxicity testing required about 5 g of the thiodipeptide, Ala-ΨS-Ser.tfa (trifluoroacetate salt), which was delivered to rats as test subjects.
Single oral dose of 700 mg/kg to 5 males and 5 females on day 1.
Test Substance Formulation: The dose formulation was successfully prepared using physiological saline as the vehicle. The concentration of the test substance was 140 mg/ml, dosed at a volume of 5 ml/kg, resulting in a dose of 700 mg/kg.

Data set [4] concerns the target T2, PepT1 (Rattus norvegicus, UniProt P51574).
T2 construct: using rat jejenum; from tissue; host or cells: rat jejunum
T2 sequence (P51574 1-710): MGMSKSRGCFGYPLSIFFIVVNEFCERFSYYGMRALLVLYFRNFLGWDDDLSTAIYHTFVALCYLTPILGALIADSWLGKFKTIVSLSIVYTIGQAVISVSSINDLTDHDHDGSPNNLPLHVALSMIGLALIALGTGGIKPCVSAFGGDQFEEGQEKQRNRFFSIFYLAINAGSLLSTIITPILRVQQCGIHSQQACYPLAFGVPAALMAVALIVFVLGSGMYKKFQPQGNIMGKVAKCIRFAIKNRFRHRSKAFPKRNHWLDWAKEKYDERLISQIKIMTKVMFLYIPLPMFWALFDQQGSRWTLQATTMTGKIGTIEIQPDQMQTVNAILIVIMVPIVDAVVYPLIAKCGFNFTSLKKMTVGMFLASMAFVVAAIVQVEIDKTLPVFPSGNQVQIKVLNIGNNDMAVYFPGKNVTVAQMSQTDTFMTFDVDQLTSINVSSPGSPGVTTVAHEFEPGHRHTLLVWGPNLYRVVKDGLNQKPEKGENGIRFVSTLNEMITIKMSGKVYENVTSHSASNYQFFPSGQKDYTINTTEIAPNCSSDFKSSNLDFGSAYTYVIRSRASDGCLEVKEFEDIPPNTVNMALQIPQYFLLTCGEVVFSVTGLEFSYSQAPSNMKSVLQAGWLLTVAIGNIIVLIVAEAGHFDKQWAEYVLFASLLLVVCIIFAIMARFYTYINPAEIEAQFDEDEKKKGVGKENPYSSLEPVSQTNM
The data set can be described thus: In vivo transport across the gut wall, rat jejenum, HPLC analysis. The conditions noted are these: 1 mM. The text has this:
(§1) In vivo transport experiments, using the methodology described in Lister et al. (J. Physiol., 1995, 484.1, 173-182), were used to investigate the importance of the thio group in the compounds according to the invention during transport of thiopeptides across the gut wall. […] For the purposes of this experiment, this thiopeptide was not conjugated to a drug analogue molecule. Then, using rat jejenum, they carried out direct measurements of transport of this test thiopeptide across the gut wall. […]

For data set [5], the system named is PepT1. Described as above.
Excerpt: as §1

Data set [6] deals with T1, PepT1. As to the kind of experiment: Efflux / trans-stimulation assay in PepT1-expressing oocytes injected with [3H]-D-Phe-L-Gln. The class given is cell-based. How it is done: Efflux experiments were performed as described in Temple et al., J. Biol. Chem., 1998, 273, 20-22. Briefly, PepT1-expressing oocytes were micro-injected with 4.6 nl of [^3H]-D-Phe-L-Gln (17.4 Ci/mmole) and allowed to recover for 15 minutes. 5 oocytes were incubated in […] uptake solution (pH 5.5) containing a potential substrate (i.e. a thiodipeptide-drug analogue conjugate) at 10 mM, with a negative control (i.e. uptake solution pH 5.5) and a positive control (i.e. 20 mM dipeptide Gly-Gln in pH 5.5 uptake solution). After 90 minutes incubation at room temperature, 50 μL of the medium was removed and placed in a scintillation vial for counting. The oocytes were washed sequentially five times in 1 mL of ice-cold uptake medium, then lysed individually with 100 μL 2% (w/v) SDS in vials, and liquid scintillation counted.
Efflux of the radiolabelled dipeptide is a positive indication of active transport via PepT1.
In the assays carried out, the dipeptide Gly-Gln (which is known to be transported by PepT1) caused about 30% of labelled D-Phe-L-Gln to remain in the oocytes. At the same concentration, the test substrates (the conjugates being tested) are assessed as follows:—
<(measureable efflux, but less transport than Gly-Gln control, with ≧50% of D-Phe-L-Gln remaining)
=(efflux similar to the effect of Gly-Gln, i.e. 25-50% of labelled D-Phe-L-Gln remaining)
>(more efflux than Gly-Gln, i.e. <25% of labelled D-Phe-L-Gln remaining)
There are no reports in the literature of thiodipeptides attached to drugs or drug analogues, and therefore no examples of such conjugates being actively transported.

Peptide text beside a SMILES is read from it.

The Ki is the dissociation constant of the complex between target and ligand, obtained from inhibition or displacement. With `CC(N)C(=S)NC(COCc1ccccc1)C(=O)O` [D-Ala-ΨS-Ser(OBn)], the “substrate for PepT1” value in data set [1] was “substrate for PepT1”. In addition, in data set [1] (competition with 0.4 μM [3H]-D-Phe-L-Gln, oocytes, pH 5.5, one hour), the affinity, expressed as Ki, was 1070 µM. The resistance to hydrolysis entry in data set [2] is recorded as “more hydrolysis resistant than its corresponding L-isomer”.
In the case of `CC(N)C(=S)N[C@@H](CO)C(=O)O.O=C(O)C(F)(F)F` (stereo partly shown) [Ala-ΨS-Ser.tfa], the Intercurrent deaths entry in data set [3] (15 days) is listed as “no intercurrent deaths”. Moreover, the Clinical observations result in data set [3] (daily for 15 days) is given as “no treatment related findings”. In data set [3] (day 15), the Bodyweights result is listed as “All animals had gained weight” and the “Macroscopic findings at scheduled termination” value is reported as “no macroscopic findings”.
For `C[C@H](NC(=S)[C@@H](N)Cc1ccccc1)C(=O)O` [thiopeptide analogue of L-Phe-L-Ala, Phe-ΨS-Ala], in data set [4], the transport rate is recorded as 3.09 (+/−0.047) micromol/min/g of whole dry intestine and the “transport rate relative to control dipeptide D-Phe-L-Gln” value is listed as “about 13 times”. Also, the “resistance to peptidases of the small intestine” value in data set [5] is reported as “resistant to the peptidases”.
In the case of `NCC(=O)N[C@@H](CCC(N)=O)C(=O)O` [Gly-Gln] (H-Gly-Gln-OH), the “cpm remaining in oocytes” value in data set [6] (10 mM, average from 5 experiments) is given as 1347 (+/−126) cpm. In data set [6] (at 10 mM), this compound gave an efflux of 72%. The “labelled D-Phe-L-Gln remaining in the oocytes” value in data set [6] (positive control Gly-Gln, pH 5.5, 90 minutes) was “about 30%”.
